Columns and labels:
[1] = target: T1, recombinant human VEGF-R2 (Homo sapiens, UniProt P35968); assay: VEGF-R2 Kinase Assay (ELISA); format: biochemical; conditions: 10 μM ATP, 25° C. 30 minutes, read-out: IC50 (VEGFR/bio)
T1 construct: purchased Cell signaling technology #7787
Description: This assay is used to measure the in vitro kinase activity of recombinant human VEGF-R2 in an ELISA assay.
c. Stop Buffer: 50 mM EDTA, pH 8.0.
d. DELFIA® Europium-labeled Anti-mouse IgG (PerkinElmer Life Sciences #AD0124).
f. DELFIA® Streptavidin coated, 96-well, yellow plate (PerkinElmer Life Sciences #AAAND-0005).
k. HTScan™ Tyrosine Kinase Buffer (4×)
The following protocol was used:
1. Dilute test compound with DMSO to the desired final assay concentration.
2. Dilute 6 μM substrate peptide (Tyr87) 1:1 with dH2O, add 15 μl to every assay.
3. Immediately transfer VEGF-R2 enzyme from −80° C. to ice. Allow enzyme to thaw on ice.
4. Take 2.2 μg VEGF-R2 enzyme to the enzyme tube.
6. Transfer 0.75 ml of DTT/Kinase buffer to each enzyme tube to make 4× reaction cocktail. Add 7.5 μl 4× reaction cocktail to every assay.
7. Add 2 μl ATP (10 mM) to 498 μl dH2O, take 7.5 μl for every assay. Final Assay Conditions for a 30 μl Reaction
Incubate reaction tube at 25° C. for 30 minutes. 9. Add 30 μl/assay stop buffer (50 mM EDTA, pH 8.0) to stop the reaction. 10. Transfer 25 μl of each reaction and 75 μl dH2O/well to a 96-well streptavidin coated plate and incubate, with shaking at room temperature for 60 minutes. 11. Wash three times with 200 μl/well PBS-T buffer. Pat plate on paper towel to remove excess liquid. 12. […] Add 100 μl diluted primary antibody to each well. 13. Incubate, with shaking at room temperature for 60 minutes. 14. Wash as described above in step 11. 15. Dilute Europium labeled anti-mouse IgG 1:500 in PBS-T buffer with 1% BSA. Add 100 μl diluted antibody to each well. 16. Incubate, with shaking at room temperature for 30 minutes. 17. Wash five times with 200 μl/well PBS-T buffer. Pat plate on paper towel to remove excess liquid. 18. Add 100 μl/well DELFIA® Enhancement Solution. 19. Incubate, with shaking at room temperature for 5 minutes. 20. Detect 615 nm fluorescence emission with appropriate Time-Resolved Plate Reader.
X=the fluorescence value of the well contained test compound
The IC50 value can be derived from the IRs of compounds at different concentration gradients.

[2] = system: A431 cell; assay: Cell Proliferation Inhibition EGFR Assay (SRB method); format: cell-based, homo sapient; conditions: Homo sapiens, A-431; A431 cells, 72 hours exposure, Sulforhodamine B; read-out: IC50 (A431)
Outline: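 A431 cells grown to ~85% confluence, then exposed 72 hours at 37° C to 6 to 7 serial concentrations of compound in DMEM/F12 + 10% FBS, final DMSO ≤0.5%. Growth measured by TCA fixation and sulforhodamine B staining; IC50 calculated from inhibition rates.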

T1 sequence (P35968 20-1356): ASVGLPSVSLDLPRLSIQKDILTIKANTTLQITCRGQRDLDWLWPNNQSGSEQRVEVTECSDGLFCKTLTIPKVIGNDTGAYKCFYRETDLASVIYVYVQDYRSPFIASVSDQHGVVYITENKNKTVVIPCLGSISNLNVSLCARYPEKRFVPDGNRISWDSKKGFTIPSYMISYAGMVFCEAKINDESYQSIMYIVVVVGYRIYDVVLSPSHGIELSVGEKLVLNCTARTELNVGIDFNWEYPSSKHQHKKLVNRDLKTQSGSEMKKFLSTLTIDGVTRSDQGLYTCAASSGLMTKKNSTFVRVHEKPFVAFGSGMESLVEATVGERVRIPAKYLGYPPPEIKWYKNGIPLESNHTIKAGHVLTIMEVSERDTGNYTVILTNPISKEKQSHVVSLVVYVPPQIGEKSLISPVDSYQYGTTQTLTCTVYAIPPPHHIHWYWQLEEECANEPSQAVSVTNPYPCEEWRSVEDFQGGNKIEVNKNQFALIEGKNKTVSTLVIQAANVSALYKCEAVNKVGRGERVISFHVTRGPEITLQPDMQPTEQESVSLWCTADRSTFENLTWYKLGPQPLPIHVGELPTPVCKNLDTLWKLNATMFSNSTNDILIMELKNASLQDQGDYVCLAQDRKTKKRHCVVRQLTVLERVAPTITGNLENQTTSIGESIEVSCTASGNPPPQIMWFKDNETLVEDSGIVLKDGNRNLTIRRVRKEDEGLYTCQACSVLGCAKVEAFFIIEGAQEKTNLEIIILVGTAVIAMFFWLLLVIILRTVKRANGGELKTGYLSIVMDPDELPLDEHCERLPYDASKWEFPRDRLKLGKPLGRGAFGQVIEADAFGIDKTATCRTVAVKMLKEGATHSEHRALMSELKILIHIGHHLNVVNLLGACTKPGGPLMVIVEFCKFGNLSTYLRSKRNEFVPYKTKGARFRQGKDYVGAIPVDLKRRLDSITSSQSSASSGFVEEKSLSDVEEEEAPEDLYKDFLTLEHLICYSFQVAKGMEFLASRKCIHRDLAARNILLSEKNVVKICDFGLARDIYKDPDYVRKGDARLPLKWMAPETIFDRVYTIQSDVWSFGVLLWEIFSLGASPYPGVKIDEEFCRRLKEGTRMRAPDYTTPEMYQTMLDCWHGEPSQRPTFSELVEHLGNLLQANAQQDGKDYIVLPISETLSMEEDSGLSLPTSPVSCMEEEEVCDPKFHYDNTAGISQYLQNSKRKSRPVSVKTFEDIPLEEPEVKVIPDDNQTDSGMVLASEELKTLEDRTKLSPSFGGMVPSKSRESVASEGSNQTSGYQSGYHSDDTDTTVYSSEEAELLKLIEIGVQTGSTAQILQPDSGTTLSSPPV

IC50 [1]	IC50 [2]	Compound
–	4350 nM	CCN(CC)CCN1CCc2[nH]c(/C=C3\C(=O)Nc4ccc(OC)cc43)c(C)c2C1=O [Example 35, 5-(2-Diethylamino-ethyl)-2-(5-methoxy-2-oxo-1,2-dihydro-indol-3-ylidenemethyl)-3-methyl-1,5,6,7-tetrahydro-pyrrolo[3,2-c]pyridin-4-one]
10 nM	7320 nM	CCN(CC)CCN1CCc2[nH]c(/C=C3\C(=O)Nc4cccc(-c5cccc(Cl)c5F)c43)c(C)c2C1=O [Example 36, 2-[4-(3-Chloro-2-fluoro-phenyl)-2-oxo-1,2-dihydro-indol-3-ylidenemethyl]-5-(2-diethylamino-ethyl)-3-methyl-1,5,6,7-tetrahydro-pyrrolo[3,2-c]pyridin-4-one]
70 nM	3850 nM	CCN(CC)CCN1CCc2[nH]c(/C=C3\C(=O)Nc4cccc(CCO)c43)c(C)c2C1=O [Example 37, 5-(2-Diethylamino-ethyl)-2-[4-(2-hydroxy-ethyl)-2-oxo-1,2-dihydro-indol-3-ylidenemethyl]-3-methyl-1,5,6,7-tetrahydro-pyrrolo[3,2-c]pyridin-4-one]
7.1 nM	380 nM	CCN(CC)CCN1CCc2[nH]c(/C=C3\C(=O)Nc4cccc(-c5cccc(F)c5F)c43)c(C)c2C1=O [Example 39, 5-(2-diethylamino-ethyl)-2-[4-(2,3-difluoro-phenyl)-2-oxo-1,2-dihydro-indol-3-ylidenemethyl]-3-methyl-1,5,6,7-tetrahydro-pyrrolo[3,2-c]pyridin-4-one]
47 nM	–	Cc1c(/C=C2\C(=O)Nc3ccc(Br)cc32)[nH]c2c1C(=O)N(CCN1CCCC1)CC2 [Example 40, 2-(5-Bromo-2-oxo-1,2-dihydro-indol-3-ylidenemethyl)-3-methyl-5-(2-pyrrolidin-1-yl-ethyl)-1,5,6,7-tetrahydro-pyrrolo[3,2-c]pyridin-4-one]
–	16500 nM	Cc1c(/C=C2\C(=O)Nc3cccc(CCO)c32)[nH]c2c1C(=O)N(CCN1CCOCC1)CC2 [Example 42, 2-[4-(2-Hydroxy-ethyl)-2-oxo-1,2-dihydro-indol-3-ylidenemethyl]-3-methyl-5-(2-morpholin-4-yl-ethyl)-1,5,6,7-tetrahydro-pyrrolo[3,2-c]pyridin-4-one]
–	15900 nM	Cc1c(/C=C2\C(=O)Nc3ncc(Br)cc32)[nH]c2c1C(=O)N(CCN1CCOCC1)CC2 [Example 50, 2-(5-Bromo-2-oxo-1,2-dihydro-pyrrolo[2,3-b]pyridin-3-ylidenemethyl)-3-methyl-5-(2-morpholin-4-yl-ethyl)-1,5,6,7-tetrahydro-pyrrolo[3,2-c]pyridin-4-one]
1270 nM	1900 nM	Cc1c(/C=C2\C(=O)Nc3cccc(C4CCNCC4)c32)[nH]c2c1C(=O)N(CCN1CCOCC1)CC2 [Example 52, 3-Methyl-5-(2-morpholin-4-yl-ethyl)-2-(2-oxo-4-piperidin-4-yl-1,2-dihydro-indol-3-ylidenemethyl)-1,5,6,7-tetrahydro-pyrrolo[3,2-c]pyridin-4-one]
–	2190 nM	Cc1c(/C=C2\C(=O)Nc3cccc(-c4cccc(F)c4F)c32)[nH]c2c1C(=O)N(CCN1CCCC1)CC2 [Example 59, 2-[4-(2,3-Difluoro-phenyl)-2-oxo-1,2-dihydro-indol-3-ylidenemethyl]-3-methyl-5-(2-pyrrolidin-1-yl-ethyl)-1,5,6,7-tetrahydro-pyrrolo[3,2-c]pyridin-4-one]

More lines, now with the values behind:

Compound	IC50 [1]	IC50 [2]
CCN(CC)CCN1CCc2[nH]c(/C=C3\C(=O)Nc4ncnc(Nc5ccc(F)c(Cl)c5)c43)c(C)c2C1=O [Example 12, 4-(3-Chlor O-4-fluoro-phenylamino)-5-[5-(2-diethylamino-ethyl)-3-methyl-4-oxo-4,5,6,7-tetrahydro-1H-pyrrolo[3,2-c]pyridine-2-ylmethylene]-5,7-dihydro-pyrrolo[2,3-d]pyrimidin-6-one]	1890 nM	67 nM
Cc1c(/C=C2\C(=O)Nc3ccc(Cl)cc32)[nH]c2c1C(=O)N(CCN1CCOCC1)CC2 [Example 16, 2-(5-Chloro-2-oxo-1,2-dihydro-indol-3-ylidenemethyl)-3-methyl-5-(2-morpholin-4-yl-ethyl)-1,5,6,7-tetrahydro-pyrrolo[3,2-c]pyridin-4-one]	44 nM	10200 nM
Cc1c(/C=C2\C(=O)Nc3ncnc(Nc4ccc(F)c(Cl)c4)c32)[nH]c2c1C(=O)N(CCN1CCOCC1)CC2 [Example 24, 4-(3-Chloro-4-fluoro-phenylamino)-5-[3-methyl-5-(2-morpholin-4-yl-ethyl)-4-oxo-4,5,6,7-tetrahydro-1H-pyrrolo[3,2-c]pyridine-2-ylmethylenene]-5,7-dihydro-pyrrolo[2,3-d]pyrimidin-6-one]	680 nM	330 nM
CCN(CC)CCN1CCc2[nH]c(/C=C3\C(=O)Nc4cccc(Br)c43)c(C)c2C1=O [Example 30, 2-(4-Bromo-2-oxo-1,2-dihydro-indol-3-ylidenemethyl)-5-(2-diethylamino-ethyl)-3-methyl-1,5,6,7-tetrahydro-pyrrolo[3,2-c]pyridin-4-one]	94 nM	330 nM
CCN(CC)CCN1CCc2[nH]c(/C=C3\C(=O)Nc4cccc(C5CCNCC5)c43)c(C)c2C1=O [Example 31, 5-(2-Diethylamino-ethyl)-3-methyl-2-(2-oxo-4-piperidin-4-yl-1,2-dihydro-indol-3-ylidenemethyl)-1,5,6,7-tetrahydro-pyrrolo[3,2-c]pyridin-4-one]	35 nM	350 nM
CCN(CC)CCN1CCc2[nH]c(/C=C3\C(=O)Nc4cccc(-c5ccc(Cl)cc5F)c43)c(C)c2C1=O [Example 34, 2-[4-(4-Chloro-2-fluoro-phenyl)-2-oxo-1,2-dihydro-indol-3-ylidenemethyl]-5-(2-diethylamino-ethyl)-3-methyl-1,5,6,7-tetrahydro-pyrrolo[3,2-c]pyridin-4-one]	11 nM	3230 nM

Reference: patent US8697692B2, “Pyrrolo [3,2-c] pyridine-4-one 2-indolinone protein kinase inhibitors” (Shanghai Hengrui Pharmaceutical Co., Ltd., priority 2006, dated 2014)
